# ChEMBL document CHEMBL3046257, “Response of sweet maize (Zea mays L.) hybrids to halosulfuron” (Crop Prot, 2008)
# Experiments:
# Type in all cases: organism-based
# Zea mays [1] = experiment: Toxicity in Zea mays Empire (maize) assessed as visible injury at 50 g ai/ha applied shortly post-emergence at three to five-leaf stage using backpack sprayer measured after 28 days; details: in vivo, other, 672 h
# Zea mays [2] = experiment: Toxicity in Zea mays Empire (maize) assessed as visible injury at 50 g ai/ha applied shortly post-emergence at three to five-leaf stage using backpack sprayer measured after 7 days; details: in vivo, other, 168 h
# Zea mays [3] = experiment: Toxicity in Zea mays Empire (maize) assessed as visible injury at 25 g ai/ha applied shortly post-emergence at three to five-leaf stage using backpack sprayer measured after 7 days; details: in vivo, other, 168 h
# Zea mays [4] = experiment: Toxicity in Zea mays GH2298 (maize) assessed as visible injury at 50 g ai/ha applied shortly post-emergence at three to five-leaf stage using backpack sprayer measured after 7 days; details: in vivo, other, 168 h
# Zea mays [5] = experiment: Toxicity in Zea mays GH2041 (maize) assessed as visible injury at 25 g ai/ha applied shortly post-emergence at three to five-leaf stage using backpack sprayer measured after 14 days; details: in vivo, other, 336 h
# Zea mays [6] = experiment: Toxicity in Zea mays GG214 (maize) assessed as visible injury at 25 g ai/ha applied shortly post-emergence at three to five-leaf stage using backpack sprayer measured after 7 days; details: in vivo, other, 168 h
# Zea mays [7] = experiment: Toxicity in Zea mays GG446 (maize) assessed as visible injury at 25 g ai/ha applied shortly post-emergence at three to five-leaf stage using backpack sprayer measured after 14 days; details: in vivo, other, 336 h
# Zea mays [8] = experiment: Toxicity in Zea mays GG446 (maize) assessed as visible injury at 50 g ai/ha applied shortly post-emergence at three to five-leaf stage using backpack sprayer measured after 7 days; details: in vivo, other, 168 h
# Zea mays [9] = experiment: Toxicity in Zea mays GG446 (maize) assessed as visible injury at 25 g ai/ha applied shortly post-emergence at three to five-leaf stage using backpack sprayer measured after 7 days; details: in vivo, other, 168 h
# Zea mays [10] = experiment: Toxicity in Zea mays GH2041 (maize) assessed as visible injury at 50 g ai/ha applied shortly post-emergence at three to five-leaf stage using backpack sprayer measured after 7 days; details: in vivo, other, 168 h
# Zea mays [11] = experiment: Toxicity in Zea mays GH2547 (maize) assessed as visible injury at 25 g ai/ha applied shortly post-emergence at three to five-leaf stage using backpack sprayer measured after 28 days; details: in vivo, other, 672 h
# Zea mays [12] = experiment: Toxicity in Zea mays GH2547 (maize) assessed as visible injury at 50 g ai/ha applied shortly post-emergence at three to five-leaf stage using backpack sprayer measured after 14 days; details: in vivo, other, 336 h
# Zea mays [13] = experiment: Toxicity in Zea mays GH2298 (maize) assessed as plant height at 25 g ai/ha applied shortly post-emergence at three to five-leaf stage using backpack sprayer measured after 21 days (Rvb =80 cm); details: in vivo, other, 504 h
# Zea mays [14] = experiment: Toxicity in Zea mays GH2041 (maize) assessed as plant height at 50 g ai/ha applied shortly post-emergence at three to five-leaf stage using backpack sprayer measured after 21 days (Rvb =80 cm); details: in vivo, other, 504 h
# Zea mays [15] = experiment: Toxicity in Zea mays GH2684 (maize) assessed as marketable yield at 25 g ai/ha applied shortly post-emergence at three to five-leaf stage using backpack sprayer (reference value: 15.5 T/ha ); details: in vivo, other
# Zea mays [16] = experiment: Toxicity in Zea mays Empire (maize) assessed as reduction in marketable yield at 50 g ai/ha applied shortly post-emergence at three to five-leaf stage using backpack sprayer; set-up: scale not given: the % may be the effect or the level left; details: in vivo, other
# Zea mays [17] = experiment: Toxicity in Zea mays GH2298 (maize) assessed as marketable yield at 25 g ai/ha applied shortly post-emergence at three to five-leaf stage using backpack sprayer (reference value: 16.9 T/ha ); details: in vivo, other
# Zea mays [18] = experiment: Toxicity in Zea mays GH2684 (maize) assessed as cob size at 50 g ai/ha applied shortly post-emergence at three to five-leaf stage using backpack sprayer (reference value: 340 g); details: in vivo, other
# Zea mays [19] = experiment: Toxicity in Zea mays GH2298 (maize) assessed as cob size at 25 g ai/ha applied shortly post-emergence at three to five-leaf stage using backpack sprayer (reference value: 307 g); details: in vivo, other
# Zea mays [20] = experiment: Toxicity in Zea mays GH2041 (maize) assessed as cob size at 50 g ai/ha applied shortly post-emergence at three to five-leaf stage using backpack sprayer (reference value: 285 g); details: in vivo, other
# Zea mays [21] = experiment: Toxicity in Zea mays GG446 (maize) assessed as plant height at 25 g ai/ha applied shortly post-emergence at three to five-leaf stage using backpack sprayer measured after 21 days (reference value: 85 cm); details: in vivo, other, 504 h
# Zea mays [22] = experiment: Toxicity in Zea mays GSS9299 (maize) assessed as visible injury at 50 g ai/ha applied shortly post-emergence at three to five-leaf stage using backpack sprayer measured after 28 days; details: in vivo, other, 672 h
# Zea mays [23] = experiment: Toxicity in Zea mays GSS9299 (maize) assessed as visible injury at 50 g ai/ha applied shortly post-emergence at three to five-leaf stage using backpack sprayer measured after 14 days; details: in vivo, other, 336 h
# Zea mays [24] = experiment: Toxicity in Zea mays GSS9299 (maize) assessed as visible injury at 50 g ai/ha applied shortly post-emergence at three to five-leaf stage using backpack sprayer measured after 7 days; details: in vivo, other, 168 h
# Zea mays [25] = experiment: Toxicity in Zea mays GSS9299 (maize) assessed as visible injury at 25 g ai/ha applied shortly post-emergence at three to five-leaf stage using backpack sprayer measured after 7 days; details: in vivo, other, 168 h
# Zea mays [26] = experiment: Toxicity in Zea mays GH2684 (maize) assessed as visible injury at 25 g ai/ha applied shortly post-emergence at three to five-leaf stage using backpack sprayer measured after 28 days; details: in vivo, other, 672 h
# Zea mays [27] = experiment: Toxicity in Zea mays GH2684 (maize) assessed as visible injury at 50 g ai/ha applied shortly post-emergence at three to five-leaf stage using backpack sprayer measured after 14 days; details: in vivo, other, 336 h
# Zea mays [28] = experiment: Toxicity in Zea mays GG214 (maize) assessed as marketable yield at 50 g ai/ha applied shortly post-emergence at three to five-leaf stage using backpack sprayer (reference value: 14.2 T/ha ); details: in vivo, other
# Zea mays [29] = experiment: Toxicity in Zea mays GG446 (maize) assessed as cob size at 25 g ai/ha applied shortly post-emergence at three to five-leaf stage using backpack sprayer (reference value: 379 g); details: in vivo, other
# Zea mays [30] = experiment: Toxicity in Zea mays GSS9299 (maize) assessed as plant height at 50 g ai/ha applied shortly post-emergence at three to five-leaf stage using backpack sprayer measured after 21 days (Rvb =69 cm); details: in vivo, other, 504 h
structure (smiles),measurement,setting,value
COc1cc(OC)nc(NC(=O)NS(=O)(=O)c2c(C(=O)O)c(Cl)nn2C)n1 [HALOSULFURON],Activity,Zea mays [1],1%
same,Activity,Zea mays [2],8%
same,Activity,Zea mays [3],4%
same,Activity,Zea mays [4],6%
same,Activity,Zea mays [5],1%
same,Activity,Zea mays [6],1%
same,Activity,Zea mays [7],0%
same,Activity,Zea mays [8],0%
same,Activity,Zea mays [9],0%
same,Activity,Zea mays [10],2%
same,Activity,Zea mays [11],0%
same,Activity,Zea mays [12],0%
same,Activity,Zea mays [13],76 cm
same,Activity,Zea mays [14],77 cm
same,Crop_yield,Zea mays [15],15.5 tons/ha
same,Activity,Zea mays [16],21%
same,Crop_yield,Zea mays [17],16.4 tons/ha
same,Activity,Zea mays [18],321 g
same,Activity,Zea mays [19],315 g
same,Activity,Zea mays [20],267 g
same,Activity,Zea mays [21],81 cm
same,Activity,Zea mays [22],1%
same,Activity,Zea mays [23],2%
same,Activity,Zea mays [24],2%
same,Activity,Zea mays [25],1%
same,Activity,Zea mays [26],0%
same,Activity,Zea mays [27],5%
same,Crop_yield,Zea mays [28],13.3 tons/ha
same,Activity,Zea mays [29],370 g
same,Activity,Zea mays [30],68 cm
